Target: T1, human progesterone receptor (PR) (Homo sapiens, UniProt P06401)
T1 construct: expressed in transfected cells; host or cells: HEK293
T1 sequence (P06401 1-933): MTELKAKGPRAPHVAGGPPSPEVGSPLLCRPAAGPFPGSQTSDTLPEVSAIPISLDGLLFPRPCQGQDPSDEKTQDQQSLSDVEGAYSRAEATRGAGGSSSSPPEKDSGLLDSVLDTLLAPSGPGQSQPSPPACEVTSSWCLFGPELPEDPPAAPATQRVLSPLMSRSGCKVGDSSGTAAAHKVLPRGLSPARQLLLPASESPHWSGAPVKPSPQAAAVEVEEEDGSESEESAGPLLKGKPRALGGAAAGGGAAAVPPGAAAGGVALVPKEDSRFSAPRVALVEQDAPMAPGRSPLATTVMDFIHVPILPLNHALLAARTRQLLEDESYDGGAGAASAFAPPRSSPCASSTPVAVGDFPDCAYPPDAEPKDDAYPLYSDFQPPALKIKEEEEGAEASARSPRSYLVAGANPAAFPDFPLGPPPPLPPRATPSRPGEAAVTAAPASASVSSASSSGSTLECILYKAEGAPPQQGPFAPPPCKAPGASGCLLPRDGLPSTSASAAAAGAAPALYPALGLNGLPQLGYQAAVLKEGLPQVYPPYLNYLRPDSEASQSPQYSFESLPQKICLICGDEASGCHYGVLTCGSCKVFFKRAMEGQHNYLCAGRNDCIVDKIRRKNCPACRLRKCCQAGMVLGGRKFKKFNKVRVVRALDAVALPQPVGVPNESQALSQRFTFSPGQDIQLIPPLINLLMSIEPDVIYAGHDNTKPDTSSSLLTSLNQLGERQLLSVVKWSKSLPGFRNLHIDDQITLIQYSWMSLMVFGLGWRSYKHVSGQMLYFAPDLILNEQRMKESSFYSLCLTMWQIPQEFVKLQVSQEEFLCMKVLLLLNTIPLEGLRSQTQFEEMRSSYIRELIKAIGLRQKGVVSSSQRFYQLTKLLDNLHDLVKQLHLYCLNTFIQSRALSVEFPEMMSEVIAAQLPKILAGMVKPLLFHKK
Assay: Nuclear hormone receptor panel screen (luciferase reporter, HEK293), PR
Type: cell-based
Description: Aldosterone exerts it physiological effects through interaction with the mineralocorticoid receptor. Following cytoplasmic binding of aldosterone to MR, the ligand receptor complex translocates to the cell nucleus where it binds to hormone response elements on DNA to initiate expression of target genes. […] The solvents, reagents, and ligands employed in the functional assay are readily available from commercial sources, or can be prepared by one of ordinary skill in the art.
Human embryonic kidney HEK293 cells are transfected with steroid hormone receptor and reporter gene plasmids using a suitable transfection reagent such as Fugene™. […] After 24 hours incubation with test compounds, cells are lysed and luciferase activity is determined using standard techniques.
Data are fitted to a four parameter-fit logistic curve to determine EC50 values. […] IC50 values are determined similarly using antagonist mode assay data. In the antagonist mode, percent inhibitions are determined by comparing test compound activity in the presence of low concentration of agonist (0.08 nM aldosterone for MR, 0.25 nM dexamethasone for GR, 0.66 nM of methyltrienolone for AR, and 0.08 nM of promegestone for PR) to the response produced by the same low concentration of agonist in the absence of test compound.

- EC50 (agonist mode): > 10000 nM
- IC50 (antagonist mode, 0.08 nM promegestone): ~924 nM
SMILES: O=c1[nH]c2cc(/C=C3\c4ccccc4COc4cc(F)ccc43)ccc2n1[C@@H]1C[C@@H]2COCCN2C1 [Compound (I), 5-((E)-(3-fluorodibenzo[b,e]oxepin-11(6H)-ylidene)methyl)-1-((7R,8aR)-hexahydro-1H-pyrrolo[2,1-c][1,4]oxazin-7-yl)-1H-benzo[d]imidazol-2(3H)-one]
